# Test results published in the kinase profiling compilation of Christmann-Franck et al. (2016).
# Legend:
# Assay in all cases: KINOMEscan competition binding
# BTK (human) = BTK (human) (UniProt Q06187); conditions: compound 1.0 µM
# TNK1 (human) = TNK1 (human) (UniProt Q13470); conditions: compound 1.0 µM
# NEK1 (human) = NEK1 (human) (UniProt Q96PY6); conditions: compound 1.0 µM
# PIK3CG (human) = PIK3CG (human) (UniProt P48736); conditions: compound 1.0 µM
# TGFBR1 (human) = TGFBR1 (human) (UniProt P36897); conditions: compound 1.0 µM
# CDK18 (human) = CDK18 (human) (UniProt Q07002); conditions: compound 1.0 µM
# Chain of CDK18 (human) (Q07002 whole entry, looked up): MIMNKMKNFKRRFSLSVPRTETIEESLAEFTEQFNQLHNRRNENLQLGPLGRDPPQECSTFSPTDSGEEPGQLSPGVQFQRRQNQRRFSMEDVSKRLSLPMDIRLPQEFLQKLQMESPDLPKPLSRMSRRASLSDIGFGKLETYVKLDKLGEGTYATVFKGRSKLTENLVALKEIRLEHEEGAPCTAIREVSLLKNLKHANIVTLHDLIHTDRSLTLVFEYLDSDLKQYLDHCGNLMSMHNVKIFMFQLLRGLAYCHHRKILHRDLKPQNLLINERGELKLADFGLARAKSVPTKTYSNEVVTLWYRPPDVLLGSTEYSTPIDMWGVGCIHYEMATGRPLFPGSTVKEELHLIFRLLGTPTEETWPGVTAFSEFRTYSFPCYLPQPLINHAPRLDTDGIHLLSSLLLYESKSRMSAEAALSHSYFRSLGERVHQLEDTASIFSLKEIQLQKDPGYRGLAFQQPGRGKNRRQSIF
# RPS6KA6 KD1 (human) = RPS6KA6 KD1 (human) (UniProt Q9UK32); conditions: compound 1.0 µM
# OXSR1 (human) = OXSR1 (human) (UniProt O95747); conditions: compound 1.0 µM
# WEE2 (human) = WEE2 (human) (UniProt P0C1S8); conditions: compound 1.0 µM
# MAPK10 (human) = MAPK10 (human) (UniProt P53779); conditions: compound 1.0 µM
# MYO3A (human) = MYO3A (human) (UniProt Q8NEV4); conditions: compound 1.0 µM
# CDK13 (human) = CDK13 (human) (UniProt Q14004); conditions: compound 1.0 µM
# CLK4 (human) = CLK4 (human) (UniProt Q9HAZ1); conditions: compound 1.0 µM
# Chain of CLK4 (human) (Q9HAZ1 whole entry, looked up): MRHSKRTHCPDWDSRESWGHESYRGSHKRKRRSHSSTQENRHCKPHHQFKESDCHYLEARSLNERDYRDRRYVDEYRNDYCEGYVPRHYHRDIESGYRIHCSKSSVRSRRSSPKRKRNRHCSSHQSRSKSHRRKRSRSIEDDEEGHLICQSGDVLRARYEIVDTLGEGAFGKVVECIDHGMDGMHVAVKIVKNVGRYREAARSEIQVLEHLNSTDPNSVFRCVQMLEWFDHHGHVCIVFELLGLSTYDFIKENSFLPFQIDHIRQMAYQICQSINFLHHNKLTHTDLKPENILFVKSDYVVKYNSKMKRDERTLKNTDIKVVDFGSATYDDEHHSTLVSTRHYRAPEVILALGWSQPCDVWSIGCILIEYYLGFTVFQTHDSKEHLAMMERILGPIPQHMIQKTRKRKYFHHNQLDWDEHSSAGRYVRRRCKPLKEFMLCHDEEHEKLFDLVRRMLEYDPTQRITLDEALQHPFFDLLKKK
# TTK (human) = TTK (human) (UniProt P33981); conditions: compound 1.0 µM
# PLK2 (human) = PLK2 (human) (UniProt Q9NYY3); conditions: compound 1.0 µM
# Chain of PLK2 (human) (Q9NYY3 whole entry, looked up): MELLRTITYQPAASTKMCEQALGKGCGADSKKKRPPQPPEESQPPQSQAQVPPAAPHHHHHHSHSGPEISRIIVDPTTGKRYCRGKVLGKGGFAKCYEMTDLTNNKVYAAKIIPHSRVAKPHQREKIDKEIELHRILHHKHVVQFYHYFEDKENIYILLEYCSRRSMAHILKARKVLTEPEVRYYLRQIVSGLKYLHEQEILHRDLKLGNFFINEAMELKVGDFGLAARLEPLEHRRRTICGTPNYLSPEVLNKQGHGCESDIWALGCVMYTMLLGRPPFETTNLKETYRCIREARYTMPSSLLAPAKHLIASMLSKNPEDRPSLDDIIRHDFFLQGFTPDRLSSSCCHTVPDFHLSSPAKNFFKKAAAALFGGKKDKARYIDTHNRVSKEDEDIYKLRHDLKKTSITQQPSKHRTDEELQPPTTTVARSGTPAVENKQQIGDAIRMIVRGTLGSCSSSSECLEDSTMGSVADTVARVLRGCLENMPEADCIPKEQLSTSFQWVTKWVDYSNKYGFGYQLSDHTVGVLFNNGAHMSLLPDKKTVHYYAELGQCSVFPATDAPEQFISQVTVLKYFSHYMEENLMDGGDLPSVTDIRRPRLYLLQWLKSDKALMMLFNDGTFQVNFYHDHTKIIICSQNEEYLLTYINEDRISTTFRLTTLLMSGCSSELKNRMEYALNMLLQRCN
# DMPK (human) = DMPK (human) (UniProt Q09013); conditions: compound 1.0 µM
# FES (human) = FES (human) (UniProt P07332); conditions: compound 1.0 µM
# PIP5K1C (human) = PIP5K1C (human) (UniProt O60331); conditions: compound 1.0 µM
# CSF1R (human) = CSF1R (human) (UniProt P07333); conditions: compound 1.0 µM
# [1] = test system: EGFR (human), P00533 [A750P; 747-749 del]; conditions: compound 1.0 µM
# STK36 (human) = STK36 (human) (UniProt Q9NRP7); conditions: compound 1.0 µM
# ERBB3 (human) = ERBB3 (human) (UniProt P21860); conditions: compound 1.0 µM
# CPK1 (P.falciparum) = conditions: compound 1.0 µM
# PRKACB (human) = PRKACB (human) (UniProt P22694); conditions: compound 1.0 µM
# SIK1 (human) = SIK1 (human) (UniProt P57059); conditions: compound 1.0 µM
# ITK (human) = ITK (human) (UniProt Q08881); conditions: compound 1.0 µM
# ICK (human) = ICK (human) (UniProt Q9UPZ9); conditions: compound 1.0 µM
# LTK (human) = LTK (human) (UniProt P29376); conditions: compound 1.0 µM
# CaMK1 (human) = CaMK1 (human) (UniProt Q14012); conditions: compound 1.0 µM
# PKN3 (M.tuberculosis) = PKN3 (M.tuberculosis) (UniProt Q6P5Z2); conditions: compound 1.0 µM
# CDC42BPG (human) = CDC42BPG (human) (UniProt Q6DT37); conditions: for kinase still bound, per cent of control: compound 1.0 µM
# Chain of CDC42BPG (human) (Q6DT37 whole entry, looked up): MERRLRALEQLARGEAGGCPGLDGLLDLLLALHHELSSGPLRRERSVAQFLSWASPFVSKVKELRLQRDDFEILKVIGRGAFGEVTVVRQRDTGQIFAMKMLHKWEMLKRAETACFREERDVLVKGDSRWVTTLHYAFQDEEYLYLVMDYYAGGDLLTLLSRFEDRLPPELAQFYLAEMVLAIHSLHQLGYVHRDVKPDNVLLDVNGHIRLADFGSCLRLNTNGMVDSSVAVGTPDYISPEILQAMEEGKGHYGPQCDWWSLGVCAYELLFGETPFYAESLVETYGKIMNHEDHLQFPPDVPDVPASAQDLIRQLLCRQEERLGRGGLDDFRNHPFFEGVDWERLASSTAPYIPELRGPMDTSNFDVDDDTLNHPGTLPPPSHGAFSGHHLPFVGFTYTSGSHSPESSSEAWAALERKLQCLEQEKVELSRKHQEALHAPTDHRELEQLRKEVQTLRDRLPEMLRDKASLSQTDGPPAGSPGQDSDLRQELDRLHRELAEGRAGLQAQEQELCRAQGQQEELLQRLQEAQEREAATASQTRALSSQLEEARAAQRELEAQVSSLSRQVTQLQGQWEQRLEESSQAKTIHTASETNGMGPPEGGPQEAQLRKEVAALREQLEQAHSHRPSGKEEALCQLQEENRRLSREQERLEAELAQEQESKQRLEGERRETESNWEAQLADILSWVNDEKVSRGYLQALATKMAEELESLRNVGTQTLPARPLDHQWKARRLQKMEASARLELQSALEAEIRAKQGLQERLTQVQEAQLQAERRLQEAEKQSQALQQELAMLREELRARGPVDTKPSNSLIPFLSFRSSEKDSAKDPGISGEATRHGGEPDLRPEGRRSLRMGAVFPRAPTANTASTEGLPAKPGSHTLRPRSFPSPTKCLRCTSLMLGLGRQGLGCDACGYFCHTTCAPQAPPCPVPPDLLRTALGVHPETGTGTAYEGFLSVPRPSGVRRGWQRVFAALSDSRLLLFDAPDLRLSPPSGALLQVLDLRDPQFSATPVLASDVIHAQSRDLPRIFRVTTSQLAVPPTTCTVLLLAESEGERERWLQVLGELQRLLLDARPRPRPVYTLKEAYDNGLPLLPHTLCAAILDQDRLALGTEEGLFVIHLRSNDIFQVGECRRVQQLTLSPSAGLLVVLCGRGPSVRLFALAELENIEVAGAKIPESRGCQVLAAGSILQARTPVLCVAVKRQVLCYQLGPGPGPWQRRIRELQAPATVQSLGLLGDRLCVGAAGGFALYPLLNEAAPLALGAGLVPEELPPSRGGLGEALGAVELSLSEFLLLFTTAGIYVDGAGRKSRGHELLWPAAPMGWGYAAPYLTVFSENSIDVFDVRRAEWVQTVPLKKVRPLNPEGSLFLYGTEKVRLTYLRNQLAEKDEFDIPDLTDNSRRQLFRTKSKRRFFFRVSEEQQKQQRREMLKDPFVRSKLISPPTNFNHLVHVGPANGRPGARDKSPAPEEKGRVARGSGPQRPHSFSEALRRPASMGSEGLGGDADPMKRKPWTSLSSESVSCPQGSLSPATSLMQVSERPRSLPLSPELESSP
# PKMYT1 (human) = PKMYT1 (human) (UniProt Q99640); conditions: compound 1.0 µM
# Chain of PKMYT1 (human) (Q99640 whole entry, looked up): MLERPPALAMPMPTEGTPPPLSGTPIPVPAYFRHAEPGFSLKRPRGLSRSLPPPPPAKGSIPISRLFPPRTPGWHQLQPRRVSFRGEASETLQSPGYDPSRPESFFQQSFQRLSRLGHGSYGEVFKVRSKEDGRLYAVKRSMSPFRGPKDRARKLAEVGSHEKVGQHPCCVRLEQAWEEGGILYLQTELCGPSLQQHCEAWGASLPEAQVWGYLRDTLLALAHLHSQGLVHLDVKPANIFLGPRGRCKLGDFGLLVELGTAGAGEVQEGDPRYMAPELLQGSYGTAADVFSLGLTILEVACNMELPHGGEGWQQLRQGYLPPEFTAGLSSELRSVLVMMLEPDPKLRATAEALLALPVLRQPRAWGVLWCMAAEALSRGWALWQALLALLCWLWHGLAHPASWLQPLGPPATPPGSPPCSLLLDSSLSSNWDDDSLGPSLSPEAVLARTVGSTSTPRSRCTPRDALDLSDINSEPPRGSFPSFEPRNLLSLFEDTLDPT
# DSTYK (human) = DSTYK (human) (UniProt Q6XUX3); conditions: compound 1.0 µM
# PLK1 (human) = PLK1 (human) (UniProt P53350); conditions: compound 1.0 µM
# HIPK2 (human) = HIPK2 (human) (UniProt Q9H2X6); conditions: compound 1.0 µM
# NEK9 (human) = NEK9 (human) (UniProt Q8TD19); conditions: compound 1.0 µM
# DCLK2 (human) = DCLK2 (human) (UniProt Q8N568); conditions: compound 1.0 µM
# RPS6KA2 KD2 (human) = RPS6KA2 KD2 (human) (UniProt Q15349); conditions: compound 1.0 µM
# MUSK (human) = MUSK (human) (UniProt O15146); conditions: compound 1.0 µM
# CAMK4 (human) = CAMK4 (human) (UniProt Q16566); conditions: compound 1.0 µM
# SRPK3 (human) = SRPK3 (human) (UniProt Q9UPE1); conditions: compound 1.0 µM
# Chain of SRPK3 (human) (Q9UPE1 whole entry, looked up): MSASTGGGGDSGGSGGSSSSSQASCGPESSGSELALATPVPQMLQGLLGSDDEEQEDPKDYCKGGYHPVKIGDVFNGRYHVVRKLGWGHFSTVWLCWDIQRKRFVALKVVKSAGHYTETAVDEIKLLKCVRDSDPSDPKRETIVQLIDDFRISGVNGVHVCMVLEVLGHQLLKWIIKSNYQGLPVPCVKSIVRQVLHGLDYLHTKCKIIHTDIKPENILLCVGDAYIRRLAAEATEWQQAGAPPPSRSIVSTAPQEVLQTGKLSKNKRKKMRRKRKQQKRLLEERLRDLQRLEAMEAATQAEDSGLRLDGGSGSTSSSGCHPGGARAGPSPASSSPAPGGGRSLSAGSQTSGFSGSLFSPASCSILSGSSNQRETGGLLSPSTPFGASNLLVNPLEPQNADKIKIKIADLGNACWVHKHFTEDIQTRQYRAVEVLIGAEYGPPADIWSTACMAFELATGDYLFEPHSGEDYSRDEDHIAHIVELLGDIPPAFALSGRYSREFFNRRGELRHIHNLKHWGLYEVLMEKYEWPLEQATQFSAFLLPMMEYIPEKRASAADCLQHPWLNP
# MAP2K4 (human) = MAP2K4 (human) (UniProt P45985); conditions: compound 1.0 µM
# BMP2K (human) = BMP2K (human) (UniProt Q9NSY1); conditions: compound 1.0 µM
# Chain of BTK (human) (Q06187 whole entry, looked up): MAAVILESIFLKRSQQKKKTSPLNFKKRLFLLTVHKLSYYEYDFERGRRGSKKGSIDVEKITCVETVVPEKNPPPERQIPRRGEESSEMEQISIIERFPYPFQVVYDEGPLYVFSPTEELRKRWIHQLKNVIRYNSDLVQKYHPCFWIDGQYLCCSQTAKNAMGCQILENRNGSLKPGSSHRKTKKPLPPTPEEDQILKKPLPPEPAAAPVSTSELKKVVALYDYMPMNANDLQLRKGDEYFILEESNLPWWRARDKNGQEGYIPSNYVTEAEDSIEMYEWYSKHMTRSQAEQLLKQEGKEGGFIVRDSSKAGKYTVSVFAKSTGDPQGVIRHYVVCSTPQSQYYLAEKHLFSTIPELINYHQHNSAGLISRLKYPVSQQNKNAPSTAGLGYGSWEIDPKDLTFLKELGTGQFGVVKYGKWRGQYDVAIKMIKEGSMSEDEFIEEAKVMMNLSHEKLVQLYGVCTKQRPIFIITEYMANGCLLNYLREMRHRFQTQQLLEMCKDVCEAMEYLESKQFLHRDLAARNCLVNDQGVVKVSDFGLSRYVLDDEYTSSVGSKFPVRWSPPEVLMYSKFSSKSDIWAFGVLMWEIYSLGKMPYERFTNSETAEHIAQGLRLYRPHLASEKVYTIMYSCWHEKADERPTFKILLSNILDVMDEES
compound,measurement,setting,value
Cc1cc(NC(=O)c2cccc(NC(=O)/C=C/CN(C)C)c2)ccc1Nc1nccc(-c2cccnc2)n1,"kinase still bound, per cent of control",BTK (human),100%
same,"kinase still bound, per cent of control",TNK1 (human),60%
same,"kinase still bound, per cent of control",NEK1 (human),81%
same,"kinase still bound, per cent of control",PIK3CG (human),100%
same,"kinase still bound, per cent of control",TGFBR1 (human),89%
same,"kinase still bound, per cent of control",CDK18 (human),100%
same,"kinase still bound, per cent of control",RPS6KA6 KD1 (human),100%
same,"kinase still bound, per cent of control",OXSR1 (human),89%
same,"kinase still bound, per cent of control",WEE2 (human),100%
same,"kinase still bound, per cent of control",MAPK10 (human),0%
same,"kinase still bound, per cent of control",MYO3A (human),81%
same,"kinase still bound, per cent of control",CDK13 (human),100%
same,"kinase still bound, per cent of control",CLK4 (human),93%
same,"kinase still bound, per cent of control",TTK (human),46%
same,"kinase still bound, per cent of control",PLK2 (human),79%
same,"kinase still bound, per cent of control",DMPK (human),63%
same,"kinase still bound, per cent of control",FES (human),89%
same,"kinase still bound, per cent of control",PIP5K1C (human),93%
same,"kinase still bound, per cent of control",CSF1R (human),8.6%
same,"kinase still bound, per cent of control",[1],84%
same,"kinase still bound, per cent of control",STK36 (human),91%
same,"kinase still bound, per cent of control",ERBB3 (human),93%
same,"kinase still bound, per cent of control",CPK1 (P.falciparum),100%
same,"kinase still bound, per cent of control",PRKACB (human),76%
same,"kinase still bound, per cent of control",SIK1 (human),100%
same,"kinase still bound, per cent of control",ITK (human),100%
same,"kinase still bound, per cent of control",ICK (human),92%
same,"kinase still bound, per cent of control",LTK (human),100%
same,"kinase still bound, per cent of control",CaMK1 (human),81%
same,"kinase still bound, per cent of control",PKN3 (M.tuberculosis),100%
same,"kinase still bound, per cent of control",CDC42BPG (human),86%
same,"kinase still bound, per cent of control",PKMYT1 (human),69%
same,"kinase still bound, per cent of control",DSTYK (human),100%
same,"kinase still bound, per cent of control",PLK1 (human),100%
same,"kinase still bound, per cent of control",HIPK2 (human),71%
same,"kinase still bound, per cent of control",NEK9 (human),100%
same,"kinase still bound, per cent of control",DCLK2 (human),94%
same,"kinase still bound, per cent of control",RPS6KA2 KD2 (human),100%
same,"kinase still bound, per cent of control",MUSK (human),100%
same,"kinase still bound, per cent of control",CAMK4 (human),100%
same,"kinase still bound, per cent of control",SRPK3 (human),70%
same,"kinase still bound, per cent of control",MAP2K4 (human),70%
same,"kinase still bound, per cent of control",BMP2K (human),94%
CN(C)C/C=C/C(=O)Nc1cccc(C(=O)Nc2ccc(Nc3nccc(-c4c(-c5ccccc5)nn5ccccc45)n3)cc2)c1,"kinase still bound, per cent of control",BTK (human),100%
same,"kinase still bound, per cent of control",TNK1 (human),100%
same,"kinase still bound, per cent of control",NEK1 (human),100%
same,"kinase still bound, per cent of control",PIK3CG (human),84%
same,"kinase still bound, per cent of control",TGFBR1 (human),12%
same,"kinase still bound, per cent of control",CDK18 (human),95%
same,"kinase still bound, per cent of control",RPS6KA6 KD1 (human),91%
same,"kinase still bound, per cent of control",OXSR1 (human),100%
same,"kinase still bound, per cent of control",WEE2 (human),100%
same,"kinase still bound, per cent of control",MAPK10 (human),0%
same,"kinase still bound, per cent of control",MYO3A (human),100%
same,"kinase still bound, per cent of control",CDK13 (human),100%
same,"kinase still bound, per cent of control",CLK4 (human),100%
same,"kinase still bound, per cent of control",TTK (human),94%
same,"kinase still bound, per cent of control",PLK2 (human),81%
same,"kinase still bound, per cent of control",DMPK (human),59%
same,"kinase still bound, per cent of control",FES (human),100%
same,"kinase still bound, per cent of control",PIP5K1C (human),87%
same,"kinase still bound, per cent of control",CSF1R (human),6%
same,"kinase still bound, per cent of control",[1],1.6%
same,"kinase still bound, per cent of control",STK36 (human),2.2%
same,"kinase still bound, per cent of control",ERBB3 (human),43%
same,"kinase still bound, per cent of control",CPK1 (P.falciparum),0.6%
same,"kinase still bound, per cent of control",PRKACB (human),83%
same,"kinase still bound, per cent of control",SIK1 (human),29%
same,"kinase still bound, per cent of control",ITK (human),100%
same,"kinase still bound, per cent of control",ICK (human),100%
same,"kinase still bound, per cent of control",LTK (human),83%
same,"kinase still bound, per cent of control",CaMK1 (human),100%
same,"kinase still bound, per cent of control",PKN3 (M.tuberculosis),100%
same,Kd,CDC42BPG (human),18 nM
same,"kinase still bound, per cent of control",CDC42BPG (human),0.25%
same,"kinase still bound, per cent of control",PKMYT1 (human),100%
same,"kinase still bound, per cent of control",DSTYK (human),80%
same,"kinase still bound, per cent of control",PLK1 (human),100%
same,"kinase still bound, per cent of control",HIPK2 (human),97%
same,"kinase still bound, per cent of control",NEK9 (human),100%
same,"kinase still bound, per cent of control",DCLK2 (human),100%
same,"kinase still bound, per cent of control",RPS6KA2 KD2 (human),82%
same,"kinase still bound, per cent of control",MUSK (human),100%
same,"kinase still bound, per cent of control",CAMK4 (human),100%
same,"kinase still bound, per cent of control",SRPK3 (human),100%
same,"kinase still bound, per cent of control",MAP2K4 (human),100%
same,"kinase still bound, per cent of control",BMP2K (human),100%
